Laboratory results as given in PubChem BioAssay AID1259407 (Chemical Carcinogenesis Research Information System (CCRIS), 2018).
Calls of active or inactive are those of the source. How the calls were made is not given here.

Test system: CCRIS mutagenicity, Ames/micronucleus/aberration tests
Assay: CCRIS mutagenicity studies
[1] = Test System: AMES SALMONELLA TYPHIMURIUM, Strain/Indicator: TA98, Metabolic Activation: NONE, Method: STANDARD PLATE
[2] = Test System: AMES SALMONELLA TYPHIMURIUM, Strain/Indicator: TA98, Metabolic Activation: RAT, LIVER, S-9, AROCLOR 1254, Method: STANDARD PLATE
[3] = Test System: AMES SALMONELLA TYPHIMURIUM, Strain/Indicator: TA100, Metabolic Activation: NONE, Method: STANDARD PLATE
[4] = Test System: AMES SALMONELLA TYPHIMURIUM, Strain/Indicator: TA100, Metabolic Activation: RAT, LIVER, S-9, AROCLOR 1254, Method: STANDARD PLATE

For `O=NN1CCCC1`, the mutagenic call (Test System: AMES SALMONELLA TYPHIMURIUM, Strain/Indicator: TA97, Metabolic Activation: NONE, Method: STANDARD PLATE) was “inactive; negative”, the mutagenic call (Test System: AMES SALMONELLA TYPHIMURIUM, Strain/Indicator: TA97, Metabolic Activation: RAT, LIVER, S-9, AROCLOR 1254, Method: STANDARD PLATE) was “inactive; negative” and the mutagenic call [1] was “inactive; negative”. The mutagenic call [2] was “inactive; negative”, the mutagenic call (Test System: AMES SALMONELLA TYPHIMURIUM, Strain/Indicator: TA100, Metabolic Activation: HAMSTER, LIVER, S-9, Method: PREINCUBATION) was “active; positive” and the mutagenic call (Test System: AMES SALMONELLA TYPHIMURIUM, Strain/Indicator: TA100, Metabolic Activation: HUMAN, LIVER, S-9, Method: PREINCUBATION) was “active; positive”. For the same compound, the mutagenic call [3] was “inactive; negative”, the mutagenic call (Test System: AMES SALMONELLA TYPHIMURIUM, Strain/Indicator: TA100, Metabolic Activation: PIG, LIVER, S-9, Method: PREINCUBATION) was “active; positive” and the mutagenic call (Test System: AMES SALMONELLA TYPHIMURIUM, Strain/Indicator: TA100, Metabolic Activation: RABBIT, LIVER, S-9, Method: STANDARD PLATE) was “inactive; negative”. The mutagenic call (Test System: AMES SALMONELLA TYPHIMURIUM, Strain/Indicator: TA100, Metabolic Activation: RABBIT, LUNG, S-9, Method: STANDARD PLATE) was “inactive; negative rabbit, lung, s-9”, the mutagenic call (Test System: AMES SALMONELLA TYPHIMURIUM, Strain/Indicator: TA100, Metabolic Activation: RABBIT, NASAL, S-9, Method: STANDARD PLATE) was “active; positive” and the mutagenic call (Test System: AMES SALMONELLA TYPHIMURIUM, Strain/Indicator: TA100, Metabolic Activation: RAT, ESOPHAGUS, S-9, Method: PREINCUBATION) was “active; positive”. The mutagenic call (Test System: AMES SALMONELLA TYPHIMURIUM, Strain/Indicator: TA100, Metabolic Activation: RAT, FORESTOMACH, S-9, Method: PREINCUBATION) was “active; positive”, the mutagenic call (Test System: AMES SALMONELLA TYPHIMURIUM, Strain/Indicator: TA100, Metabolic Activation: RAT, GLANDULAR STOMACH, S-9, Method: PREINCUBATION) was “active; positive” and the mutagenic call (Test System: AMES SALMONELLA TYPHIMURIUM, Strain/Indicator: TA100, Metabolic Activation: RAT, LIVER, S-9, AROCLOR 1254, Method: PREINCUBATION) was “active; positive”. The mutagenic call [4] was “inactive; negative”, the mutagenic call (Test System: AMES SALMONELLA TYPHIMURIUM, Strain/Indicator: TA100, Metabolic Activation: RAT, LIVER, S-9, Method: PREINCUBATION) was “inactive; negative” and the mutagenic call (Test System: AMES SALMONELLA TYPHIMURIUM, Strain/Indicator: TA100, Metabolic Activation: RAT, LIVER, S-9, Method: STANDARD PLATE) was “inactive; negative”. The mutagenic call (Test System: AMES SALMONELLA TYPHIMURIUM, Strain/Indicator: TA100, Metabolic Activation: RAT, LUNG, S-9, Method: STANDARD PLATE) was “inactive; negative”, the mutagenic call (Test System: AMES SALMONELLA TYPHIMURIUM, Strain/Indicator: TA100, Metabolic Activation: RAT, NASAL, S-9, Method: STANDARD PLATE) was “active; positive” and the mutagenic call (Test System: AMES SALMONELLA TYPHIMURIUM, Strain/Indicator: TA102, Metabolic Activation: RAT, LIVER, S-9, AROCLOR 1254, Method: PREINCUBATION) was “active; positive”. For the same compound, the mutagenic call (Test System: AMES SALMONELLA TYPHIMURIUM, Strain/Indicator: TA104, Metabolic Activation: RAT, LIVER, S-9, AROCLOR 1254, Method: PREINCUBATION) was “active; positive”, the mutagenic call (Test System: AMES SALMONELLA TYPHIMURIUM, Strain/Indicator: TA1530, Metabolic Activation: RAT LIVER, CYTOSOL, ISONIAZID, Method: PREINCUBATION) was “inactive; negative” and the mutagenic call (Test System: AMES SALMONELLA TYPHIMURIUM, Strain/Indicator: TA1530, Metabolic Activation: RAT LIVER, MICROSOMES, ISONIAZID, Method: PREINCUBATION) was “active; positive”. For the same compound, the mutagenic call (Test System: AMES SALMONELLA TYPHIMURIUM, Strain/Indicator: TA1530, Metabolic Activation: RAT, LIVER, S-9, Method: STANDARD PLATE) was “active; positive”, the mutagenic call (Test System: AMES SALMONELLA TYPHIMURIUM, Strain/Indicator: TA1535, Metabolic Activation: RAT, LIVER, MICROSOMES, Method: PREINCUBATION) was “active; positive” and the mutagenic call (Test System: AMES SALMONELLA TYPHIMURIUM, Strain/Indicator: TA1535, Metabolic Activation: RAT, LIVER, S-9, 3-METHYLCHOLANTHRENE, Method: STANDARD PLATE) was “inactive; negative”. For the same compound, the mutagenic call (Test System: AMES SALMONELLA TYPHIMURIUM, Strain/Indicator: TA1535, Metabolic Activation: RAT, LIVER, S-9, AROCLOR 1254, Method: PREINCUBATION) was “active; positive”, the mutagenic call (Test System: AMES SALMONELLA TYPHIMURIUM, Strain/Indicator: TA1535, Metabolic Activation: RAT, LIVER, S-9, ETHANOL, Method: STANDARD PLATE) was “active; positive” and the mutagenic call (Test System: AMES SALMONELLA TYPHIMURIUM, Strain/Indicator: TA1535, Metabolic Activation: RAT, LIVER, S-9, PHENOBARBITAL, Method: STANDARD PLATE) was “active; positive”. For the same compound, the mutagenic call (Test System: AMES SALMONELLA TYPHIMURIUM, Strain/Indicator: TA1535, Metabolic Activation: RAT, LIVER, S-9, PHENOBARBITONE AND BETA-NAPHTHOFLAVONE, Method: PREINCUBATION) was “active; positive”, the mutagenic call (Test System: AMES SALMONELLA TYPHIMURIUM, Strain/Indicator: TA1535, Metabolic Activation: RAT, LIVER, S-9, PHENOBARBITONE AND BETA-NAPHTHOFLAVONE, Method: STANDARD PLATE) was “active; positive” and the mutagenic call (Test System: AMES SALMONELLA TYPHIMURIUM, Strain/Indicator: TA1535, Metabolic Activation: RAT, LIVER, S-9, PYRAZOLE, Method: PREINCUBATION) was “active; positive”. For the same compound, the mutagenic call (Test System: AMES SALMONELLA TYPHIMURIUM, Strain/Indicator: TA1535, Metabolic Activation: RAT, LIVER, S-9, PYRAZOLE, Method: STANDARD PLATE) was “active; positive”, the mutagenic call (Test System: AMES SALMONELLA TYPHIMURIUM, Strain/Indicator: TA1975, Metabolic Activation: RAT, LIVER, S-9, AROCLOR 1254, Method: PREINCUBATION) was “active; positive” and the mutagenic call (Test System: AMES SALMONELLA TYPHIMURIUM, Strain/Indicator: TA2410, Metabolic Activation: NONE, Method: HOST-MEDIATED) was “inactive; negative”. The mutagenic call (Test System: AMES SALMONELLA TYPHIMURIUM, Strain/Indicator: TA2678, Metabolic Activation: NONE, Method: HOST-MEDIATED) was “inactive; negative”, the mutagenic call (Test System: Ames Salmonella typhimurium, Strain/Indicator: YG7108, Metabolic Activation: Rat, Liver, S-9, Phenobarbital/beta-naphtoflavone, Method: Standard plate) was “active; positive” and the mutagenic call (Test System: Ames Salmonella typhimurium, Strain/Indicator: YG7108pin3ERb5, Metabolic Activation: None, Method: Standard plate) was “active; positive”. The mutagenic call (Test System: CHINESE HAMSTER OVARY, Strain/Indicator: CHO-K1-BH4 (HGPRT), Metabolic Activation: RAT, LIVER, S-9, AROCLOR, Method: SUSPENSION/PLATE) was “active; positive”, the mutagenic call (Test System: CHINESE HAMSTER V-79, Strain/Indicator: V-79/8-AZAGUANINE, Metabolic Activation: RAT, LIVER, S-15, PHENOBARBITAL, Method: STANDARD PLATE) was “active; positive” and the mutagenic call (Test System: UDS RODENT HEPATOCYTES, Strain/Indicator: THY INCORP (NON-S-PHASE), Method: AUTORADIOGRAPHY) was “active; positive”.

For `C=Cc1ccc(O)c(C=C)c1`, the mutagenic call [1] was “inactive; negative”, the mutagenic call (Test System: AMES SALMONELLA TYPHIMURIUM, Strain/Indicator: TA98, Metabolic Activation: S-9, Method: STANDARD PLATE) was “inactive; negative” and the mutagenic call [3] was “inactive; negative”. For the same compound, the mutagenic call (Test System: AMES SALMONELLA TYPHIMURIUM, Strain/Indicator: TA100, Metabolic Activation: S-9, Method: STANDARD PLATE) was “inactive; negative”.

In the case of `Cc1nnc2n1-c1ccc(Cl)cc1C(c1ccccc1Cl)=NC2`, the mutagenic call [1] is reported as “inactive; negative”, the mutagenic call [2] is reported as “inactive; negative” and the mutagenic call [3] is reported as “inactive; negative”. For the same compound, the mutagenic call [4] was “inactive; negative”, the mutagenic call (Test System: AMES SALMONELLA TYPHIMURIUM, Strain/Indicator: TA102, Metabolic Activation: NONE, Method: STANDARD PLATE) was “inactive; negative” and the mutagenic call (Test System: AMES SALMONELLA TYPHIMURIUM, Strain/Indicator: TA102, Metabolic Activation: RAT, LIVER, S-9, AROCLOR 1254, Method: STANDARD PLATE) was “inactive; negative”. The mutagenic call (Test System: AMES SALMONELLA TYPHIMURIUM, Strain/Indicator: TA1535, Metabolic Activation: NONE, Method: STANDARD PLATE) was “inactive; negative”, the mutagenic call (Test System: AMES SALMONELLA TYPHIMURIUM, Strain/Indicator: TA1535, Metabolic Activation: RAT, LIVER, S-9, AROCLOR 1254, Method: STANDARD PLATE) was “inactive; negative” and the mutagenic call (Test System: AMES SALMONELLA TYPHIMURIUM, Strain/Indicator: TA1537, Metabolic Activation: NONE, Method: STANDARD PLATE) was “inactive; negative”. For the same compound, the mutagenic call (Test System: AMES SALMONELLA TYPHIMURIUM, Strain/Indicator: TA1537, Metabolic Activation: RAT, LIVER, S-9, AROCLOR 1254, Method: STANDARD PLATE) was “inactive; negative”, the mutagenic call (Test System: E. COLI, Strain/Indicator: WP2 UVRA, Metabolic Activation: NONE, Method: STANDARD PLATE) was “inactive; negative” and the mutagenic call (Test System: E. COLI, Strain/Indicator: WP2 UVRA, Metabolic Activation: RAT, LIVER, S-9, AROCLOR 1254, Method: STANDARD PLATE) was “inactive; negative”.
